Source: patent US20110160223A1, “NMDA Receptor Antagonists for the Treatment of Neuropsychiatric Disorders” (priority 2008, published 2011)
Like-named read-outs stand apart in the source and are kept apart here. Each block holds one compound with its values, some of them ahead of it.

Legend:
[1] = molecular target: NMDA receptor (NR1 + NR2 subunits) (Rattus norvegicus, UniProt P35439+Q00960); assay: Two electrode voltage clamp recording from Xenopus laevis oocytes (pH dependence of NMDA antagonism); assay type: cell-based
Description: cRNA was synthesized from linearized template cDNA for rat glutamate receptor subunits according to manufacturer specifications (Ambion). Quality of synthesized cRNA was assessed by gel electrophoresis, and quantity was estimated by spectroscopy and gel electrophoresis. Stage V and VI oocytes were surgically removed from the ovaries of large, well-fed and healthy Xenopus laevis anesthetized with 3-amino-benzoic acid ethyl ester (3 gm/l) as previously described. Clusters of isolated oocytes were incubated with 292 U/ml Worthington (Freehold, N.J.) type IV collagenase or 1.3 mg/ml collagenase (Life Technologies, Gaithersburg, Md.; 17018-029) for 2 hr in Ca^2+-free solution comprised of (in mM) 115 NaCl, 2.5 KCl, and 10 HEPES, pH 7.5, with slow agitation to remove the follicular cell layer. Oocytes were then washed extensively in the same solution supplemented with 1.8 mM CaCl2 and maintained in Barth's solution comprised of (in mM): 88 NaCl, 1 KCl, 2.4 NaHCO3, 10 HEPES, 0.82 MgSO4, 0.33 Ca(NO3)2, and 0.91 CaCl2 and supplemented with 100 μg/ml gentamycin, 10 μg/ml streptomycin, and 10 μg/ml penicillin. Oocytes were manually defolliculated and injected within 24 hrs of isolation with 3-5 ng of NR1 subunit cRNA and 7-10 ng of NR2 cRNA subunit in a 50 nl volume, or 5-10 ng of AMPA or kainate receptor cRNAs in a 50 nl volume, and incubated in Barth's solution at 18° C. for 1-7 d. Glass injection pipettes had tip sizes ranging from 10-20 microns, and were backfilled with mineral oil.
Two electrode voltage-clamp recordings were made 2-7 days post-injection as previously described. Oocytes were placed in a dual-track plexiglass recording chamber with a single perfusion line that splits in a Y-configuration to perfuse two oocytes. Dual recordings were made at room temperature (23° C.) using two Warner OC725B two-electrode voltage clamp amplifiers, arranged as recommended by the manufacturer. Glass microelectrodes (1-10 Megaohms) were filled with 300 mM KCl (voltage electrode) or 3 M KCl (current electrode). The bath clamps communicated across silver chloride wires placed into each side of the recording chamber, both of which were assumed to be at a reference potential of 0 mV. Oocytes were perfused with a solution comprised of (in mM) 90 NaCl, 1 KCl, 10 HEPES, and 0.5 BaCl2; pH was adjusted by addition of 1-3 M NaOH of HCl. Oocytes were recorded under voltage clamp at −40 mV. Final concentrations for control application of glutamate (50 μM) plus glycine (30 μM) were achieved by adding appropriate volumes from 100 and 30 mM stock solutions, respectively. In addition, 10 μM final EDTA was obtained by adding a 1:1000 dilution of 10 mM EDTA, in order to chelate contaminant divalent ions such as Zn^2+. Concentration-response curves for experimental compounds were obtained by applying in successive fashion maximal glutamate/glycine, followed by glutamate/glycine plus variable concentrations of experimental compounds. Dose response curves consisting of 4 to 8 concentrations were obtained in this manner. The baseline leak current at −40 mV was measured before and after recording, and the full recording linearly corrected for any change in leak current. Oocytes with glutamate-evoked responses smaller than 50 nA were not included in the analysis. The level of inhibition by applied experimental compounds was expressed as a percent of the initial glutamate response, and averaged together across oocytes from a single frog. Each experiment consisted of recordings from 3 to 10 oocytes obtained from a single frog. Results from 3-6 experiments were pooled, and the average percent responses at antagonist concentrations were fitted by the equation,
Percent Response=(100−minimum)/(1+([conc]/IC50)^nH)+minimum […]

[2] = Plasma half-life (i.v./i.p. pharmacokinetics, Table 23); assay type: in vivo, Rats; details: rat; for AUC(0-t): read-out: AUC (0-last h) i.v. XMPK; for Cmax at 30 min: 30 m
Description: Animals were fasted overnight prior to dose administration and food returned to the animals two hours after dosing. Following IV dosing, blood samples (ca 200 μL) were collected into separate tubes containing anticoagulant (K-EDTA) via the orbital plexus at various times post administration. Plasma samples were prepared immediately after collection by centrifugation for ten minutes using a tabletop centrifuge, and stored at −80° C. Brain tissue was weighed, homogenized on ice in 50 mM phosphate buffer (2 ml per brain) and the homogenate stored at −80° C. Plasma and brain homogenate samples were extracted by the addition of 5 volumes of cold acetonitrile, mixed well by vortexing and centrifuged at 4000 rpm for 15 minutes. The supernatant fractions were analyzed by LC-MS/MS operating in multiple reaction monitoring mode (MRM). The amount of parent compound in each sample was calculated by comparing the response of the analyte in the sample to that of a standard curve.

[3] = Oral absorption (p.o. pharmacokinetics, Table 25); assay type: in vivo, Rats; details: rat, plasma; for bioavailability: read-out: % Absorbed (% F); for AUC(0-t): read-out: AUC (0-last h) p.o.
[4] = pH 6.9, Table 21, read-out: IC50 at pH 6.9
[5] = pH 7.6, Table 21, read-out: IC50 at pH 7.6
[6] = iv, 1 mg/kg, 1 MPK, 0-4 hr i.v.
[7] = iv, 1 mg/kg, 1 MPK, 0-6 hr i.v.

Chain of NMDA receptor (NR1 + NR2 subunits) (Q00960 27-1482, other chains not shown): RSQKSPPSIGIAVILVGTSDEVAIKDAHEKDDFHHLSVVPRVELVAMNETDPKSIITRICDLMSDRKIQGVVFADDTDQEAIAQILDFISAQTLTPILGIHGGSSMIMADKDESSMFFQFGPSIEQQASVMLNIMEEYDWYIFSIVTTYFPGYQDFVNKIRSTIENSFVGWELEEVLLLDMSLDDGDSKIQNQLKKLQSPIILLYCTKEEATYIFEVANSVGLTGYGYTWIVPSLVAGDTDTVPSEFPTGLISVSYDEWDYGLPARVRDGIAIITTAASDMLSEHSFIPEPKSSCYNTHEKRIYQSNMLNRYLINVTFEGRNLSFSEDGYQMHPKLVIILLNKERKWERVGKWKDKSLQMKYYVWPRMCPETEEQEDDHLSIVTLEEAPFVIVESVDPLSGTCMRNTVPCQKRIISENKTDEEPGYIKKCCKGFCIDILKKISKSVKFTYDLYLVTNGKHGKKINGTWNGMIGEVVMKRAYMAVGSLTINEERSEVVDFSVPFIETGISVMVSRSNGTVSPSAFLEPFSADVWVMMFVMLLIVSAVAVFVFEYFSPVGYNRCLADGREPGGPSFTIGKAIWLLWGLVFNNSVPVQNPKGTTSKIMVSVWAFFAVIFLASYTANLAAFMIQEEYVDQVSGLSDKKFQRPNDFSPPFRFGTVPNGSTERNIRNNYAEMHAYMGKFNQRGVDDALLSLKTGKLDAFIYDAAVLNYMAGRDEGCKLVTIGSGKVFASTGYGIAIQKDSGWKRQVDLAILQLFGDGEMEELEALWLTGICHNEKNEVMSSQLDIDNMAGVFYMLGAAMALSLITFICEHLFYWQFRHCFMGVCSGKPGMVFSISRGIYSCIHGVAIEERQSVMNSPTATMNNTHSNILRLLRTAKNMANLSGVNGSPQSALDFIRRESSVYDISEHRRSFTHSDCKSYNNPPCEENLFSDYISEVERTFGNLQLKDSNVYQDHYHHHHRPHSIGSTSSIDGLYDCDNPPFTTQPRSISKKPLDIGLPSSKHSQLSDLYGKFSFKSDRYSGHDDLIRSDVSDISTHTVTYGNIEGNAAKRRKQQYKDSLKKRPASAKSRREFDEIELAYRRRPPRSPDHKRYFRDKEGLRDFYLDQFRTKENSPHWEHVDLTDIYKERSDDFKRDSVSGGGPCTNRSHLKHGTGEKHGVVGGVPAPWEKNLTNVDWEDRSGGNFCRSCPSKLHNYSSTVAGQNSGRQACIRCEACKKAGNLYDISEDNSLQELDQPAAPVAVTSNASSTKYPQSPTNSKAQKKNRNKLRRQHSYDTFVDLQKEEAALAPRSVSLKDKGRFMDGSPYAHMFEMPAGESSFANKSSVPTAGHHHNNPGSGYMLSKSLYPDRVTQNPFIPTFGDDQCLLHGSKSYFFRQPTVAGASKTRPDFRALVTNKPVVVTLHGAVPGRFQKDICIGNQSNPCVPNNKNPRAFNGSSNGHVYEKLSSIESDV

Compound: CS(=O)(=O)Nc1ccc(CCC(=O)NCCNc2ccc(Cl)c(Cl)c2)cc1
IC50 [1, 4]: 30 nM | IC50 [1, 5]: 55 nM

Compound: CS(=O)(=O)Nc1ccc(CCCNCCNc2ccc(Cl)c(Cl)c2)cc1
IC50 [1, 4]: 2 nM | IC50 [1, 5]: 21 nM

Compound: CS(=O)(=O)Nc1ccc(CCCN2CCN(c3ccc(Cl)c(Cl)c3)C2=O)cc1
IC50 [1, 4]: 160 nM | IC50 [1, 5]: 809 nM

Compound: O=C(COc1ccc2[nH]c(=O)oc2c1)NCCNc1ccc(Cl)c(Cl)c1
IC50 [1, 4]: 80 nM | IC50 [1, 5]: 150 nM

Compound: CS(=O)(=O)Nc1ccc(CCC(=O)NC/C=C/c2ccc(Cl)c(Cl)c2)cc1
IC50 [1, 4]: 10 nM | IC50 [1, 5]: 70 nM

Compound: O=C(COc1ccc(O)cc1)NCCNc1ccc(Cl)c(Cl)c1
IC50 [1, 4]: 280 nM | IC50 [1, 5]: 515 nM

Compound: O=C(CCc1ccc(O)cc1)NCCNc1ccc(Cl)c(Cl)c1
IC50 [1, 4]: 210 nM | IC50 [1, 5]: 339 nM

Compound: O[C@H](COc1ccc2[nH]ccc2c1)CN1CCN(c2ccc(Cl)cc2)CC1
IC50 ([1]; pH 6.9, Table 22, read-out: IC50 pH 6.9): > 10000 nM | IC50 ([1]; pH 7.6, Table 22, read-out: IC50 pH 7.6): > 10000 nM

Compound: CS(=O)(=O)Nc1ccc(OC[C@@H](O)CN2CCN(c3ccc(Cl)c(Cl)c3)CC2)cc1
Cmax ([2]; iv, 3 mg/kg, 3MPK i.v.): 1070 ng/mL | AUC(0-t) ([2]; iv, 3 mg/kg, 3MPK, 0-4 hr i.v.): 2350 ng·h/mL

Compound: NC(=O)Nc1ccc(OC[C@@H](O)CN2CCN(c3ccc(Cl)cc3)CC2)cc1 [drawing 755]
IC50 ([1]; pH 6.9, Table 20, read-out: IC50 at pH 6.9): 46 nM | IC50 ([1]; pH 7.6, Table 20, read-out: IC50 at pH 7.6): 452 nM

Compound: O=C(COc1ccc2[nH]c(=O)oc2c1)N1CCN(c2ccc(Cl)c(Cl)c2)CC1 [drawing 768]
IC50 [1, 4]: 41 nM | IC50 [1, 5]: 45 nM

Compound: NC(=O)Nc1ccc(OC[C@@H](O)CN2CCN(c3ccc(Cl)cc3)CC2)cc1 [drawing 786]
Cmax ([2]; iv, 1 mg/kg, 1 MPK i.v.): 252 ng/mL | AUC(0-t) [2, 6]: 1030 ng·h/mL

Compound: O=c1[nH]c2ccc(OC[C@@H](O)CN3CCN(c4ccc(F)c(F)c4)CC3)cc2[nH]1 [drawing 787]
Cmax ([2]; iv, 1 mg/kg, 1 MPK i.v.): 241 ng/mL | AUC(0-t) [2, 7]: 452 ng·h/mL

Compound: CS(=O)(=O)Nc1ccc(OC[C@@H](O)CN2CCN(c3ccc(F)c(F)c3)CC2)cc1 [drawing 789]
Cmax at 30 min ([2]; ip, 60 mg/kg, 60 MPK): 13400 ng/mL | Cmax at 2 hr ([2]; ip, 60 mg/kg, 60 MPK, 2 hr): 13100 ng/mL

Compound: Cc1ccc(N2CCN(C[C@H](O)COc3ccc4c(c3)CCC(=O)N4)CC2)cc1 [drawing 790]
Cmax ([2]; iv, 1 mg/kg, 1 MPK i.v.): 464 ng/mL | AUC(0-t) [2, 7]: 347 ng·h/mL

Compound: Oc1ccc(OC[C@@H](O)CN2CCN(c3ccc(Cl)cc3)CC2)cc1 [drawing 791]
Cmax ([2]; iv, 1 mg/kg, 1 MPK i.v.): 193 ng/mL | AUC(0-t) [2, 6]: 187 ng·h/mL

Compound: O=c1[nH]c2ccc(OC[C@@H](O)CN3CCN(c4ccc(Cl)cc4)CC3)cc2o1 [drawing 792]
Cmax ([2]; iv, 1 mg/kg, 1 MPK i.v.): 288 ng/mL | AUC(0-t) [2, 6]: 217 ng·h/mL

Compound: Cc1ccc(N2CCN(C[C@H](O)COc3ccc4[nH]c(=O)oc4c3)CC2)cc1 [drawing 793]
Cmax ([2]; iv, 1 mg/kg, 1 MPK i.v.): 568 ng/mL | AUC(0-t) [2, 6]: 364 ng·h/mL

Compound: NC(=O)Nc1ccc(OC[C@@H](O)CN2CCN(c3ccc(Cl)cc3)CC2)cc1 [drawing 810]
Cmax ([3]; 10 mg/kg, 10 MPK, 0-8 hr p.o.): 1560 ng/mL | Tmax ([3]; 10 mg/kg, 10 MPK, 0-8 hr p.o.): 2.67 h | bioavailability ([3]; 10 mg/kg, 10 MPK, 0-8 hr p.o.): 146% | AUC(0-t) ([3]; 10 mg/kg, 10 MPK, 0-8 hr p.o.): 8450 ng·h/mL

Compound: O=c1[nH]c2ccc(OC[C@@H](O)CN3CCN(c4ccc(Cl)cc4)CC3)cc2o1 [drawing 814]
Cmax ([3]; 10 mg/kg, 10 MPK, 0-8 hr p.o.): 30.6 ng/mL | Tmax ([3]; 10 mg/kg, 10 MPK, 0-8 hr p.o.): 8 h | bioavailability ([3]; 10 mg/kg, 10 MPK, 0-8 hr p.o.): 6.2% | AUC(0-t) ([3]; 10 mg/kg, 10 MPK, 0-8 hr p.o.): 132 ng·h/mL

Continued, values first:

Cmax ([2]; iv, 1 mg/kg, 1 MPK i.v.): 715 ng/mL | AUC(0-t) [2, 7]: 787 ng·h/mL
Compound: NC(=O)Nc1ccc(OC[C@@H](O)CN2CCN(c3ccc(Cl)cc3)C2=O)cc1 [drawing 794]

Cmax at 30 min ([2]; iv, 3 mg/kg, 3 MPK i.v.): 377 ng/mL
Compound: O=C1N(C[C@H](O)COc2ccc(O)cc2)CCN1c1ccc(Cl)cc1 [drawing 795]

Cmax ([2]; iv, 1 mg/kg, 1 MPK i.v.): 576 ng/mL | AUC(0-t) [2, 7]: 1100 ng·h/mL
Compound: O=C(COc1ccc2[nH]c(=O)[nH]c2c1)N1CCN(c2ccc(Cl)c(Cl)c2)CC1 [drawing 796]

Cmax at 15 min ([2]; ip, 10 mg/kg, 10 MPK i.p., 15 m): 960 ng/mL
Compound: O=C(COc1ccc2[nH]c(=O)oc2c1)N1CCN(c2ccc(Cl)c(Cl)c2)CC1 [drawing 797]

Cmax at 30 min ([2]; iv, 3 mg/kg, 3 MPK i.v.): 398 ng/mL
Compound: O=c1[nH]c2ccc(OC[C@@H](O)CSc3nc4cc(Cl)c(Cl)cc4[nH]3)cc2o1 [drawing 798]

Cmax at 30 min ([2]; iv, 3 mg/kg, 3 MPK i.v.): 413 ng/mL
Compound: Oc1ccc(OC[C@@H](O)CSc2nc3cc(Cl)c(Cl)cc3[nH]2)cc1 [drawing 799]

Cmax ([3]; 5 mg/kg, 5 MPK, 0-6 hr p.o.): 558 ng/mL | Tmax ([3]; 5 mg/kg, 5 MPK, 0-6 hr p.o.): 0.5 h | bioavailability ([3]; 5 mg/kg, 5 MPK, 0-6 hr p.o.): 82.2% | AUC(0-t) ([3]; 5 mg/kg, 5 MPK, 0-6 hr p.o.): 1860 ng·h/mL
Compound: O=c1[nH]c2ccc(OC[C@@H](O)CN3CCN(c4ccc(F)c(F)c4)CC3)cc2[nH]1 [drawing 811]

Cmax ([3]; 5 mg/kg, 5 MPK, 0-6 hr p.o.): 407 ng/mL | Tmax ([3]; 5 mg/kg, 5 MPK, 0-6 hr p.o.): 0.33 h | bioavailability ([3]; 5 mg/kg, 5 MPK, 0-6 hr p.o.): 31.6% | AUC(0-t) ([3]; 5 mg/kg, 5 MPK, 0-6 hr p.o.): 549 ng·h/mL
Compound: Cc1ccc(N2CCN(C[C@H](O)COc3ccc4c(c3)CCC(=O)N4)CC2)cc1 [drawing 812]

Cmax ([3]; 10 mg/kg, 10 MPK, 0-8 hr p.o.): 57.8 ng/mL | Tmax ([3]; 10 mg/kg, 10 MPK, 0-8 hr p.o.): 6.7 h | bioavailability ([3]; 10 mg/kg, 10 MPK, 0-8 hr p.o.): 7.9% | AUC(0-t) ([3]; 10 mg/kg, 10 MPK, 0-8 hr p.o.): 284 ng·h/mL
Compound: Cc1ccc(N2CCN(C[C@H](O)COc3ccc4[nH]c(=O)oc4c3)CC2)cc1 [drawing 813]

Cmax ([3]; 10 mg/kg, 10 MPK, 0-8 hr p.o.): 10.2 ng/mL | Tmax ([3]; 10 mg/kg, 10 MPK, 0-8 hr p.o.): 5.3 h | bioavailability ([3]; 10 mg/kg, 10 MPK, 0-8 hr p.o.): 3.3% | AUC(0-t) ([3]; 10 mg/kg, 10 MPK, 0-8 hr p.o.): 56.4 ng·h/mL
Compound: Oc1ccc(OC[C@@H](O)CN2CCN(c3ccc(Cl)cc3)CC2)cc1 [drawing 815]
